The values below come from ChEMBL document CHEMBL3045752, “Sideroxylin and 8-demethylsideroxylin from Eucalyptus saligna (Myrtaceae)” (2001).

Holding throughout (type): functional
One assay has as its system Locusta migratoria. Briefly: Antifeedant activity against Locusta migratoria final stadium nymphs at 100 ppm by glass-fiber choice assay.
For the next assay, the system named is Heliothis virescens. Briefly: Antifeedant activity against Heliothis virescens (tobacco budworm) final stadium […] at 100 ppm by glass-fiber choice assay.
Another assay deals with Spodoptera exigua. In words: Antifeedant activity against Spodoptera exigua final stadium […] at 100 ppm by glass-fiber choice assay.

Regarding `COc1cc2oc(-c3ccc(O)cc3)cc(=O)c2c(O)c1C` [8-DEMETHYLSIDEROXYLIN], the AFI with Locusta migratoria is listed as 1.9%; in the assay with Heliothis virescens, 7.3%; in the assay with Spodoptera exigua, 8.9%.
`COc1cc(/C=C/C=O)ccc1O` [CONIFERYL ALDEHYDE]: the AFI in the assay with Locusta migratoria is recorded as 4.5%; in the assay on Heliothis virescens it was 2.2%; with Spodoptera exigua it was 4%.
Take `COc1c(C)c(O)c2c(=O)cc(-c3ccc(O)cc3)oc2c1C` [SIDEROXYLIN]: the AFI with Locusta migratoria was found to be 24.2%; with Heliothis virescens, 19.6%; with Spodoptera exigua, 21.2%.
